Assays:
Fusarium graminearum = type: cell-based; conditions: ethanol as solvent; 500 uL medium lyophilized; HPLC can detect down to ng/sample
Aspergillus parasiticus = type: cell-based

| Compound | DON detection by HPLC analysis (Fusarium graminearum) | reduction of aflatoxin levels (Aspergillus parasiticus; 25 ppm, liquid culture, TLC analysis) | lowest effective concentration for reducing aflatoxin levels (Aspergillus parasiticus; liquid culture, TLC analysis) | effect on aflatoxin accumulation in culture (in words) (Aspergillus parasiticus) |
| --- | --- | --- | --- | --- |
| COc1cc(/C=C/C(=O)N2CCCCC2)ccc1O [Compound 1] | some DON was detected | – | – | – |
| COc1cc(/C=C/C(=O)N2CCCCC2=O)ccc1O [Compound 3, (E)-1-(3-(4-hydroxy-3-methyoxyphenyl)acryloyl)piperidin-2-one] | not detected | up to 80% | 25 ppm | – |
| COc1cc(/C=C/C(=O)N2CCCC2)ccc1O [Compound 2] | some DON was detected | – | – | – |
| CCC=CCC=CCC=CCCCCCCCC(=O)N1CCCCC1 [Compound 7] | not detected | – | – | reduced aflatoxin accumulation in culture, but the effect was inconsistent from one trial to the next |
